System: adult T. muris
Test: Ex vivo adult T. muris automated motility assay (primary/secondary screen at 100 μM and dose-response)
Parameters: species or system Trichuris muris
Settings: for PRIMARY_SCREEN_MINUS_LOG_FOLD_CHANGE_MOVEMENT: primary screen
Outline: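 Motility scored after 24 h (37 °C, 5% CO2) by automated imaging of pixel intensity variance, one worm per well, four weekly biological replicates. Worms came from SCID mice infected orally with 200 eggs, harvested day 35; screening at 100 μM final in RPMI-1640/antibiotics, 1% DMSO; curves fitted with four-parameter log-logistic model.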

[1] = combined primary and secondary screen minus log fold change in movement, adult T. muris, 100 μM
[2] = adult T. muris motility, 100 μM
[3] = adult T. muris motility screen at 100 μM, combines primary and secondary screen minus log fold change in movement (mean where both are given)

| SMILES | COMBINED_SCREEN_ACTIVITY [1] | PRIMARY_SCREEN_MINUS_LOG_FOLD_CHANGE_MOVEMENT [2] | COMBINED_SCREEN_ACTIVITY [3] | SECONDARY_SCREEN_MINUS_LOG_FOLD_CHANGE_MOVEMENT (secondary screen, adult T. muris motility, 100 μM) |
| --- | --- | --- | --- | --- |
| CCCN1C(=O)COCc2ccc(Br)cc21 [Compound 18] | -1.618 | -1.618 |  |  |
| CC(C)N1C(=O)COCc2ccc(-c3cnn(C)c3)cc21 [Compound 20] | 0.06851 | 0.06851 |  |  |
| COc1ccccc1-c1ccc2c(c1)N(Cc1ccccc1)C(=O)COC2 [Compound 96] | -0.4906 | -0.4906 |  |  |
| O=C1COCc2cc(-c3cc(F)cc(F)c3)ccc2N1CCN1CCOCC1 [Compound 138] | -0.5965 | -0.5965 |  |  |
| Cn1cc(-c2ccc3c(c2)N(Cc2ccccc2)C(=O)COC3)cn1 [Compound 59] | -0.5338 | -0.5338 |  |  |
| O=C1COCc2ccccc2N1Cc1cc(F)cc(F)c1 [Compound 23] | -1.442 | -1.442 |  |  |
| O=C1COCc2ccc(-c3ccncc3)cc2N1CC1CCCCC1 [Compound 60] | 7.742 | 7.742 |  |  |
| COc1cc(F)ccc1-c1ccc2c(c1)N(Cc1cc(F)cc(F)c1)C(=O)COC2 [Compound 181] |  | -0.2325 | -0.2325 |  |
| COc1cccc(CN2C(=O)COCc3cc(-c4ccc(F)cc4OC)ccc32)c1 [Compound 177] | -1.282 | -1.282 |  |  |
| O=C1COCc2ccc(-c3ccc(F)c(Cl)c3)cc2N1CCN1CCOCC1 [Compound 175] | 0.9531 | 0.9531 |  |  |
| CC(=O)Nc1cccc(-c2ccc3c(c2)N(CCc2ccccc2)C(=O)COC3)c1 [Compound 164] | 1.82 | 1.82 |  |  |
| O=C1COCc2ccc(-c3cccnc3)cc2N1Cc1cc(F)cc(F)c1 [Compound 110] | -0.9208 | -0.9208 |  |  |
| COCc1cccc(-c2ccc3c(c2)N(Cc2ccccc2)C(=O)COC3)c1 [Compound 118] | 10.5493 | 10.5493 |  |  |
| O=C1COCc2cc(-c3cccnc3)ccc2N1Cc1ccccc1Cl [Compound 106] | 6.595 | 6.595 |  |  |
| COc1cc(F)ccc1-c1ccc2c(c1)N(CC1CC1)C(=O)COC2 [Compound 70] | 11.6216 | 10.6243 |  | 12.6188 |
| Cn1cc(-c2ccc3c(c2)N(Cc2ccccc2Cl)C(=O)COC3)cn1 [Compound 114] | 1.278 | 1.278 |  |  |
| O=C1COCc2ccc(-c3ccc4ccccc4c3)cc2N1CCN1CCOCC1 [Compound 167] | 3.214 | 3.214 |  |  |
| O=C1COCc2ccc(Br)cc2N1CC1CCCCC1 [Compound 65] | -1.362 | -1.362 |  |  |
| O=C1COCc2ccc(-c3cccnc3)cc2N1CC1CC1 [Compound 25] | -1.503 | -1.503 |  |  |
| Cc1ccc(-c2ccc3c(c2)N(CCN2CCOCC2)C(=O)COC3)cc1C [Compound 134] | -2.044 | -2.044 |  |  |
| O=C1COCc2cc(-c3cccnc3)ccc2N1Cc1cc(F)cc(F)c1 [Compound 109] | 7.462 | 7.462 |  |  |
| O=C1COCc2cc(-c3cccnc3)ccc2N1Cc1ccccc1 [Compound 51] | -0.6528 | -0.6528 |  |  |
| COc1cc(F)ccc1-c1cccc2c1COCC(=O)N2C [Compound 32] | -1.894 | -1.894 |  |  |
| COc1cc(F)ccc1-c1ccc2c(c1)N(CCc1ccccc1)C(=O)COC2 [Compound 146] | -0.8154 | -0.8154 |  |  |
| COCCN1C(=O)COCc2ccc(-c3cccc(C(=O)OC)c3)cc21 [Compound 93] | -1.513 | -1.513 |  |  |

| SMILES | COMBINED_SCREEN_ACTIVITY [1] | PRIMARY_SCREEN_MINUS_LOG_FOLD_CHANGE_MOVEMENT [2] | COMBINED_SCREEN_ACTIVITY [3] | SECONDARY_SCREEN_MINUS_LOG_FOLD_CHANGE_MOVEMENT (secondary screen, adult T. muris motility, 100 μM) |
| --- | --- | --- | --- | --- |
| COc1cccc(CN2C(=O)COCc3cc(-c4cccc(CO)c4)ccc32)c1 [Compound 142] | -0.6408 | -0.6408 |  |  |
| COc1cccc(CN2C(=O)COCc3ccc(Br)cc32)c1 [Compound 104] | -1.975 | -1.975 |  |  |
| COCc1cccc(-c2ccc3c(c2)COCC(=O)N3Cc2cccc(OC)c2)c1 [Compound 170] | -0.3892 | -0.3892 |  |  |
| O=C1COCc2ccc(-c3cccc(O)c3)cc2N1Cc1ccccc1Cl [Compound 133] | -0.006244 | -0.006244 |  |  |
| Cn1cc(-c2ccc3c(c2)COCC(=O)N3Cc2ccc(C(F)(F)F)cc2)cn1 [Compound 165] | 10.5493 | 10.5493 |  |  |
| CC(C)N1C(=O)COCc2ccc(-c3cccc(F)c3)cc21 [Compound 29] | 1.463 | 1.463 |  |  |
| Cn1cc(-c2ccc3c(c2)COCC(=O)N3Cc2ccccc2Cl)cn1 [Compound 113] | 0.5472 | 0.5472 |  |  |
| COc1ccc(-c2ccc3c(c2)N(Cc2ccccc2)C(=O)COC3)cn1 [Compound 102] | 0.7062 | 0.7062 |  |  |
| N#Cc1cccc(-c2ccc3c(c2)COCC(=O)N3Cc2ccccc2)c1 [Compound 90] | -1.512 | -1.512 |  |  |
| Cc1ccc(-c2ccc3c(c2)COCC(=O)N3Cc2ccc(C(=O)N(C)C)cc2)cc1C [Compound 186] |  | 10.5493 | 10.5493 |  |
| Cn1cc(-c2ccc3c(c2)COCC(=O)N3Cc2ccccc2)cn1 [Compound 58] | 0.8104 | 0.8104 |  |  |
| O=C1COCc2cc(-c3cccc(CO)c3)ccc2N1Cc1ccc2c(c1)OCO2 [Compound 168] | 1.914 | 1.914 |  |  |
| N#Cc1cccc(-c2ccc3c(c2)N(CC2CC2)C(=O)COC3)c1 [Compound 40] | -0.6738 | -0.6738 |  |  |
| Cc1ccccc1-c1ccc2c(c1)COCC(=O)N2CCN1CCOCC1 [Compound 111] | -0.2494 | -0.2494 |  |  |
| COc1ccccc1-c1ccc2c(c1)N(CCN1CCOCC1)C(=O)COC2 [Compound 136] | -0.8162 | -0.8162 |  |  |
| CC(C)N1C(=O)COCc2ccc(-c3cccnc3)cc21 [Compound 13] | -0.8665 | -0.8665 |  |  |
| COc1ccc(F)cc1-c1ccc2c(c1)COCC(=O)N2CCc1ccccc1 [Compound 145] | -1.739 | -1.739 |  |  |
| Cc1ccccc1CN1C(=O)COCc2ccc(-c3cccnc3)cc21 [Compound 76] | -0.5388 | -0.5388 |  |  |
| COCc1cccc(-c2ccc3c(c2)N(CC2CC2)C(=O)COC3)c1 [Compound 63] | -1.629 | -1.629 |  |  |
| O=C1COCc2ccc(-c3cc(F)cc(F)c3)cc2N1CC1CC1 [Compound 48] | 1.875 | 1.875 |  |  |
| COc1ccccc1-c1ccc2c(c1)COCC(=O)N2Cc1ccc(C(=O)N(C)C)cc1 [Compound 188] |  | 1.744 | 1.744 |  |
| N#Cc1cccc(-c2ccc3c(c2)N(Cc2ccccc2)C(=O)COC3)c1 [Compound 89] | 0.3109 | 0.3109 |  |  |
| Cc1ccc(CN2C(=O)COCc3cc(-c4cnn(C)c4)ccc32)cc1 [Compound 82] | 0.6432 | 0.6432 |  |  |
| COc1ccccc1-c1ccc2c(c1)COCC(=O)N2Cc1ccc(C)cc1 [Compound 120] | -1.664 | -1.664 |  |  |
| COCCN1C(=O)COCc2ccc(-c3ccc(Cl)cc3)cc21 [Compound 53] | -0.5764 | -0.5764 |  |  |

Reference: article PMC5321434, “Dihydrobenz[e][1,4]oxazepin-2(3H)-ones, a new anthelmintic chemotype immobilising whipworm and reducing infectivity in vivo” (PLoS Neglected Tropical Diseases, 2017)
